Starred links: 1 amine or outer side, 2 acyl side, 3 side chain; linkers in the order of their positions; H or OH if unused. Positions of bridges follow the written chain, without caps; N, C: chain ends. Non-standard residues stand in square brackets, D forms with d. Residues, ends and D or L forms follow the SMILES beside them. *: point of attachment. Orn(4R-OH,5R-OH) = O=C([C@H](C[C@@H](O)[C@@H](O)N[*:3])N[*:1])[*:2]; hTyr(3S-OH,4S-OH) = N[C@H](C(=O)O)[C@H](O)[C@@H](O)c1ccc(O)cc1; Benzoyl(4-OC10H21) = CCCCCCCCCCOc1ccc(C(=O)*)cc1; Pro(3S-OH,4S-Me) = C[C@H]1CN[C@H](C(=O)O)[C@H]1O; Benzoyl(4-octyloxy) = CCCCCCCCOc1ccc(C(=O)*)cc1; X2 = CCCCCCCCCCCCCCS(=O)(=O)c1ccc(C(=O)*)cc1; Benzoyl(4-octyl) = CCCCCCCCc1ccc(C(=O)*)cc1; X5 = CCCCCCCCCCCCS(=O)(=O)c1ccc(C(=O)*)cc1; X4 = CCCCCCCCCCS(=O)(=O)c1ccc(C(=O)*)cc1; X23 = CCCCCCCCS(=O)(=O)c1ccc(C(=O)*)cc1; X22 = CCCCCCCCCCCCOc1ccc(CCC(=O)*)cc1; X10 = CCCCCCCCCCCCOc1cccc(C(=O)*)c1; X1 = CCCCCCCCCCCCSc1ccc(C(=O)*)cc1; X21 = CCCCCCCCOc1ccc(CCC(=O)*)cc1; Hyp = O=C(O)[C@@H]1C[C@@H](O)CN1; X6 = CCCCCCCCCCSc1ccc(C(=O)*)cc1; X9 = CCCCCCCCCCOc1cccc(C(=O)*)c1; X12 = CCCCCCOc1ccc(CCC(=O)*)cc1; X13 = CCCCCCCCOc1cccc(C(=O)*)c1; X7 = CCCCCCCCSc1ccc(C(=O)*)cc1; X14 = CCCCCCOc1ccc(C(=O)*)cc1; X17 = CCCCOc1ccc(CCC(=O)*)cc1
How the values were obtained:
Candida albicans A-26 = assay: Agar plate disc diffusion test, MIC per disc; assay type: cell-based; details: 0.1M sodium borate, pH 7.5, 24 hours, 30° C.
Procedure: (§1) Tables 10 and 11 give the results of the testing in vitro of the compounds of Examples 3 and 4 by agar-plate disc-diffusion methods. In Table 10 activity is measured by the size (diameter in mm) of the observed zone of inhibition of the microorganism produced by the test compound. In Table 11, activity is measured by the minimal inhibitory concentration (MIC) of the substance (μg/disc) required to inhibit growth of the test organism. Table 12 gives the results of the testing in vitro of the p-(n-octyloxy)benzoyl derivative of A30912A nucleus [Formula III, R^1 is p-(n-octyloxy)benzoyl] against five strains of Candida albicans by the agar dilution method. In Table 12 activity is measured by the minimal inhibitory concentration (MIC) of the substance (μg/ml) required to inhibit the test organism.
(§2) ^(a) Compounds were suspended in 0.1M sodium borate solution, pH 7.5.
(§3) The compounds were tested at 20 μg/disc at top level and at twofold
(§4) dilutions until end points were reached. Incubation: 24 hours; 30°

[1] = test system: Trychophyton mentagrophyes #6; assay: Agar plate disc diffusion test, MIC per disc; assay type: cell-based, Trichophyton mentagrophytes; details: 0.1M sodium borate, pH 7.5, 24 hours, 30° C., * measurable zones with regrowth of organism around disc
Procedure: as §1, §2, §3, §4
*Measurable zones of inhibition with regrowth of organism around disc.

SMILES	MIC (Candida albicans A-26) [μg/disc]	MIC [1] [μg/disc]
CCCCCCCCOc1ccc(C(=O)N[C@H]2C[C@@H](O)[C@@H](O)NC(=O)[C@@H]3[C@@H](O)[C@@H](C)CN3C(=O)[C@H]([C@@H](C)O)NC(=O)[C@H]([C@H](O)[C@@H](O)c3ccc(O)cc3)NC(=O)[C@@H]3C[C@@H](O)CN3C(=O)[C@H]([C@@H](C)O)NC2=O)cc1 [drawing 115] ({Benzoyl(4-octyloxy)}-[Orn(4R-OH,5R-OH)]T[Hyp][hTyr(3S-OH,4S-OH)]T[Pro(3S-OH,4S-Me)]; lactam 1-C)	0.156	< 0.039
CCCCCCCCCCOc1ccc(C(=O)N[C@H]2C[C@@H](O)[C@@H](O)NC(=O)[C@@H]3[C@@H](O)[C@@H](C)CN3C(=O)[C@H]([C@@H](C)O)NC(=O)[C@H]([C@H](O)[C@@H](O)c3ccc(O)cc3)NC(=O)[C@@H]3C[C@@H](O)CN3C(=O)[C@H]([C@@H](C)O)NC2=O)cc1 [drawing 116] ({Benzoyl(4-OC10H21)}-[Orn(4R-OH,5R-OH)]T[Hyp][hTyr(3S-OH,4S-OH)]T[Pro(3S-OH,4S-Me)]; lactam 1-C)	0.156	< 0.078
CCCCCCCCSc1ccc(C(=O)N[C@H]2C[C@@H](O)[C@@H](O)NC(=O)[C@@H]3[C@@H](O)[C@@H](C)CN3C(=O)[C@H]([C@@H](C)O)NC(=O)[C@H]([C@H](O)[C@@H](O)c3ccc(O)cc3)NC(=O)[C@@H]3C[C@@H](O)CN3C(=O)[C@H]([C@@H](C)O)NC2=O)cc1 [drawing 119] (X7-[Orn(4R-OH,5R-OH)]T[Hyp][hTyr(3S-OH,4S-OH)]T[Pro(3S-OH,4S-Me)]; lactam 1-C)	0.312	< 0.039
CCCCCCCCCCSc1ccc(C(=O)N[C@H]2C[C@@H](O)[C@@H](O)NC(=O)[C@@H]3[C@@H](O)[C@@H](C)CN3C(=O)[C@H]([C@@H](C)O)NC(=O)[C@H]([C@H](O)[C@@H](O)c3ccc(O)cc3)NC(=O)[C@@H]3C[C@@H](O)CN3C(=O)[C@H]([C@@H](C)O)NC2=O)cc1 [drawing 120] (X6-[Orn(4R-OH,5R-OH)]T[Hyp][hTyr(3S-OH,4S-OH)]T[Pro(3S-OH,4S-Me)]; lactam 1-C)	0.156	0.039
CCCCCCCCCCCCSc1ccc(C(=O)N[C@H]2C[C@@H](O)[C@@H](O)NC(=O)[C@@H]3[C@@H](O)[C@@H](C)CN3C(=O)[C@H]([C@@H](C)O)NC(=O)[C@H]([C@H](O)[C@@H](O)c3ccc(O)cc3)NC(=O)[C@@H]3C[C@@H](O)CN3C(=O)[C@H]([C@@H](C)O)NC2=O)cc1 [drawing 121] (X1-[Orn(4R-OH,5R-OH)]T[Hyp][hTyr(3S-OH,4S-OH)]T[Pro(3S-OH,4S-Me)]; lactam 1-C)	2.5	< 0.039
CCCCCCCCS(=O)(=O)c1ccc(C(=O)N[C@H]2C[C@@H](O)[C@@H](O)NC(=O)[C@@H]3[C@@H](O)[C@@H](C)CN3C(=O)[C@H]([C@@H](C)O)NC(=O)[C@H]([C@H](O)[C@@H](O)c3ccc(O)cc3)NC(=O)[C@@H]3C[C@@H](O)CN3C(=O)[C@H]([C@@H](C)O)NC2=O)cc1 [drawing 123] (X23-[Orn(4R-OH,5R-OH)]T[Hyp][hTyr(3S-OH,4S-OH)]T[Pro(3S-OH,4S-Me)]; lactam 1-C)	20	0.312
CCCCCCCCCCCCS(=O)(=O)c1ccc(C(=O)N[C@H]2C[C@@H](O)[C@@H](O)NC(=O)[C@@H]3[C@@H](O)[C@@H](C)CN3C(=O)[C@H]([C@@H](C)O)NC(=O)[C@H]([C@H](O)[C@@H](O)c3ccc(O)cc3)NC(=O)[C@@H]3C[C@@H](O)CN3C(=O)[C@H]([C@@H](C)O)NC2=O)cc1 [drawing 125] (X5-[Orn(4R-OH,5R-OH)]T[Hyp][hTyr(3S-OH,4S-OH)]T[Pro(3S-OH,4S-Me)]; lactam 1-C)	0.625	0.078
CCCCCCCCCCCCCCS(=O)(=O)c1ccc(C(=O)N[C@H]2C[C@@H](O)[C@@H](O)NC(=O)[C@@H]3[C@@H](O)[C@@H](C)CN3C(=O)[C@H]([C@@H](C)O)NC(=O)[C@H]([C@H](O)[C@@H](O)c3ccc(O)cc3)NC(=O)[C@@H]3C[C@@H](O)CN3C(=O)[C@H]([C@@H](C)O)NC2=O)cc1 [drawing 126] (X2-[Orn(4R-OH,5R-OH)]T[Hyp][hTyr(3S-OH,4S-OH)]T[Pro(3S-OH,4S-Me)]; lactam 1-C)	0.625	0.039
CCCCCCCCOc1cccc(C(=O)N[C@H]2C[C@@H](O)[C@@H](O)NC(=O)[C@@H]3[C@@H](O)[C@@H](C)CN3C(=O)[C@H]([C@@H](C)O)NC(=O)[C@H]([C@H](O)[C@@H](O)c3ccc(O)cc3)NC(=O)[C@@H]3C[C@@H](O)CN3C(=O)[C@H]([C@@H](C)O)NC2=O)c1 [drawing 127] (X13-[Orn(4R-OH,5R-OH)]T[Hyp][hTyr(3S-OH,4S-OH)]T[Pro(3S-OH,4S-Me)]; lactam 1-C)	10	> 40
CCCCCCCCc1ccc(C(=O)N[C@H]2C[C@@H](O)[C@@H](O)NC(=O)[C@@H]3[C@@H](O)[C@@H](C)CN3C(=O)[C@H]([C@@H](C)O)NC(=O)[C@H]([C@H](O)[C@@H](O)c3ccc(O)cc3)NC(=O)[C@@H]3C[C@@H](O)CN3C(=O)[C@H]([C@@H](C)O)NC2=O)cc1 [drawing 133] ({Benzoyl(4-octyl)}-[Orn(4R-OH,5R-OH)]T[Hyp][hTyr(3S-OH,4S-OH)]T[Pro(3S-OH,4S-Me)]; lactam 1-C)	0.625	0.156
CCCCOc1ccc(CCC(=O)N[C@H]2C[C@@H](O)[C@@H](O)NC(=O)[C@@H]3[C@@H](O)[C@@H](C)CN3C(=O)[C@H]([C@@H](C)O)NC(=O)[C@H]([C@H](O)[C@@H](O)c3ccc(O)cc3)NC(=O)[C@@H]3C[C@@H](O)CN3C(=O)[C@H]([C@@H](C)O)NC2=O)cc1 [drawing 134] (X17-[Orn(4R-OH,5R-OH)]T[Hyp][hTyr(3S-OH,4S-OH)]T[Pro(3S-OH,4S-Me)]; lactam 1-C)	20	1.25
CCCCCCOc1ccc(CCC(=O)N[C@H]2C[C@@H](O)[C@@H](O)NC(=O)[C@@H]3[C@@H](O)[C@@H](C)CN3C(=O)[C@H]([C@@H](C)O)NC(=O)[C@H]([C@H](O)[C@@H](O)c3ccc(O)cc3)NC(=O)[C@@H]3C[C@@H](O)CN3C(=O)[C@H]([C@@H](C)O)NC2=O)cc1 [drawing 135] (X12-[Orn(4R-OH,5R-OH)]T[Hyp][hTyr(3S-OH,4S-OH)]T[Pro(3S-OH,4S-Me)]; lactam 1-C)	0.625	0.156

The next lines start with the values.

MIC (Candida albicans A-26) [μg/disc]	MIC [1] [μg/disc]	SMILES
2.5	0.156	CCCCCCCCCCS(=O)(=O)c1ccc(C(=O)N[C@H]2C[C@@H](O)[C@@H](O)NC(=O)[C@@H]3[C@@H](O)[C@@H](C)CN3C(=O)[C@H]([C@@H](C)O)NC(=O)[C@H]([C@H](O)[C@@H](O)c3ccc(O)cc3)NC(=O)[C@@H]3C[C@@H](O)CN3C(=O)[C@H]([C@@H](C)O)NC2=O)cc1 [drawing 124] (X4-[Orn(4R-OH,5R-OH)]T[Hyp][hTyr(3S-OH,4S-OH)]T[Pro(3S-OH,4S-Me)]; lactam 1-C)
2.5	> 40	CCCCCCCCCCOc1cccc(C(=O)N[C@H]2C[C@@H](O)[C@@H](O)NC(=O)[C@@H]3[C@@H](O)[C@@H](C)CN3C(=O)[C@H]([C@@H](C)O)NC(=O)[C@H]([C@H](O)[C@@H](O)c3ccc(O)cc3)NC(=O)[C@@H]3C[C@@H](O)CN3C(=O)[C@H]([C@@H](C)O)NC2=O)c1 [drawing 128] (X9-[Orn(4R-OH,5R-OH)]T[Hyp][hTyr(3S-OH,4S-OH)]T[Pro(3S-OH,4S-Me)]; lactam 1-C)
2.5	> 40	CCCCCCCCCCCCOc1cccc(C(=O)N[C@H]2C[C@@H](O)[C@@H](O)NC(=O)[C@@H]3[C@@H](O)[C@@H](C)CN3C(=O)[C@H]([C@@H](C)O)NC(=O)[C@H]([C@H](O)[C@@H](O)c3ccc(O)cc3)NC(=O)[C@@H]3C[C@@H](O)CN3C(=O)[C@H]([C@@H](C)O)NC2=O)c1 [drawing 129] (X10-[Orn(4R-OH,5R-OH)]T[Hyp][hTyr(3S-OH,4S-OH)]T[Pro(3S-OH,4S-Me)]; lactam 1-C)
2.5	0.312	CCCCCCOc1ccc(C(=O)N[C@H]2C[C@@H](O)[C@@H](O)NC(=O)[C@@H]3[C@@H](O)[C@@H](C)CN3C(=O)[C@H]([C@@H](C)O)NC(=O)[C@H]([C@H](O)[C@@H](O)c3ccc(O)cc3)NC(=O)[C@@H]3C[C@@H](O)CN3C(=O)[C@H]([C@@H](C)O)NC2=O)cc1 [drawing 131] (X14-[Orn(4R-OH,5R-OH)]T[Hyp][hTyr(3S-OH,4S-OH)]T[Pro(3S-OH,4S-Me)]; lactam 1-C)
0.078	0.156	CCCCCCCCOc1ccc(CCC(=O)N[C@H]2C[C@@H](O)[C@@H](O)NC(=O)[C@@H]3[C@@H](O)[C@@H](C)CN3C(=O)[C@H]([C@@H](C)O)NC(=O)[C@H]([C@H](O)[C@@H](O)c3ccc(O)cc3)NC(=O)[C@@H]3C[C@@H](O)CN3C(=O)[C@H]([C@@H](C)O)NC2=O)cc1 [drawing 136] (X21-[Orn(4R-OH,5R-OH)]T[Hyp][hTyr(3S-OH,4S-OH)]T[Pro(3S-OH,4S-Me)]; lactam 1-C)
0.312	0.156	CCCCCCCCCCCCOc1ccc(CCC(=O)N[C@H]2C[C@@H](O)[C@@H](O)NC(=O)[C@@H]3[C@@H](O)[C@@H](C)CN3C(=O)[C@H]([C@@H](C)O)NC(=O)[C@H]([C@H](O)[C@@H](O)c3ccc(O)cc3)NC(=O)[C@@H]3C[C@@H](O)CN3C(=O)[C@H]([C@@H](C)O)NC2=O)cc1 [drawing 137] (X22-[Orn(4R-OH,5R-OH)]T[Hyp][hTyr(3S-OH,4S-OH)]T[Pro(3S-OH,4S-Me)]; lactam 1-C)

— patent US4293489A, “Derivatives of A-30912A nucleus” (Eli Lilly and Company, priority 1980, dated 1981)
